# Measurements from US11459330B2, “Substituted bicyclic heterocyclic compounds as PRMT5 inhibitors” (LUPIN LIMITED, priority 2017, dated 2022).
# Columns and labels:
# PANC-1 cells = assay: Anti-cancer assay (Panc-1), cell viability CellTiterGlo; assay type: cell-based; settings: Homo sapiens, PANC-1, 168 h, 7 days
# Protocol: Anticancer Activity Assay
# Z-138 cells were seeded at a density of 2000-3000 cells per well in culture media (IMDM+10% FBS). PANC-1 (ATCC, CRL-1469™) and MIA PaCa-2 (ATCC, CRL-1420™) cells were seeded at a density of 200-300 cells per well in culture media (DMEM+10% FBS). Cells were seeded in opaque, flat bottomed tissue culture grade 96-well plates and Z-138 cells (suspension) were seeded and treated on the same day with various concentrations of test compounds. PANC-1 and MIA PaCa-2 cells, being adherent, were kept for overnight settlement at standard cell culture conditions (37° C., 5% CO2). On the following day, cells were treated with various concentrations of test compounds. Cells were treated with test compounds for a period of 96 h, 7 days and 10 days, for Z-138 cells, PANC-1 cells and MIA PaCa-2 cells, respectively. Cell viability was assessed using CellTiterGlo™ (Promega, USA) as per manufacturer's instructions. Relative Light Units (RLU) were read in Synergy™ 2 reader (Biotek, USA). The assay measures cellular ATP as an indicator of cell viability. RLU is proportional to the number of viable cells in the respective well.
# % inhibition of cell viability was calculated relative to the vehicle control samples containing media with 0.1% DMSO alone as per the formula below. (Avg. of Untreated Control−Avg. of Test)×100 Avg. of Untreated Control
# The IC50 values of individual compounds were calculated with Non Linear Regression Analysis using Graph Pad Prism (Graph Pad software, Inc, USA).
# Anti-Cancer Assay (Panc-1)
# PRMT5:MEP50 = PRMT5:MEP50 (Homo sapiens, UniProt O14744); assay: PRMT5 biochemical HTRF assay (Biochemical Assay Protocol 1 / 2); settings: biotinylated H4R3 substrate, 1 μM SAM, protocol 1 or 2 not given, activity range 300 pM to 950 pM, read-out: IC50 (PRMT5 inhibition), activity range
# PRMT5:MEP50, sequence (O14744 whole entry): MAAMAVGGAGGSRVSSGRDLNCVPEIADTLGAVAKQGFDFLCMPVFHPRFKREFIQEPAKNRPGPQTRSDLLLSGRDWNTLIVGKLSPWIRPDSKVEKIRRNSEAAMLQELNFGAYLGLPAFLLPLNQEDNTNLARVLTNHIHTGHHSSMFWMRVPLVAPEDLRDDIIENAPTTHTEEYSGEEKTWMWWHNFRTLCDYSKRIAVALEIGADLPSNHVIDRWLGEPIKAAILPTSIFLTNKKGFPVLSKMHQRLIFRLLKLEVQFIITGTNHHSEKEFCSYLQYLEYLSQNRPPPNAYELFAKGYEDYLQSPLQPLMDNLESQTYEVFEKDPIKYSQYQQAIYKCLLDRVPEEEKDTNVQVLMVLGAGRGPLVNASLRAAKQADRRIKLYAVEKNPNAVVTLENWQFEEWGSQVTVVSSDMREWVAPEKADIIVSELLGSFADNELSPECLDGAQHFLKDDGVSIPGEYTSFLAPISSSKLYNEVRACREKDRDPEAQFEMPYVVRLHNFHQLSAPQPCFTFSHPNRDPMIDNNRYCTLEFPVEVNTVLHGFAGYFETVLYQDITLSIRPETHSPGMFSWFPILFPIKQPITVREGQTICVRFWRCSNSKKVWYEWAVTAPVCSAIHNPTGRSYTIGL
# PRMT5:MEP50, sequence (Q9BQA1 whole entry partner): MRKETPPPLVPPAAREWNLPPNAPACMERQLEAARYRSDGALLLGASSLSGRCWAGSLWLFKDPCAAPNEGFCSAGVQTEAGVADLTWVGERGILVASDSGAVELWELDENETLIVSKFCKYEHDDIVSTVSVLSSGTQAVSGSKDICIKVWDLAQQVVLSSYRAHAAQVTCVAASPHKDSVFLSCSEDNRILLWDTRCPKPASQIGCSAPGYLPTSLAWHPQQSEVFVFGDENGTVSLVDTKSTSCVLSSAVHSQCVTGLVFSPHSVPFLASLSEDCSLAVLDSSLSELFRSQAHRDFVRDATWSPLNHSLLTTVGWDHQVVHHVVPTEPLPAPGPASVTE
# Protocol: Biochemical Assay Protocol 1
# (§1) Inhibitory effect of compounds on PRMT5 was assessed using HTRF detection technology in biochemical assay. Biotinylated H4R3 (residues 1-21) was used as a substrate. Compounds were pre-incubated with 15-25 ng PRMT5:MEP50 per well of a 384-well plate for 30 min at room temperature in the assay buffer containing 20 mM Bicine, pH 7.6, 25 mM NaCl, 2 mM DTT, 0.01% Chicken albumin and 0.01% Tween-20. Reaction was initiated by adding 1 μM of SAM and 50 nM biotinylated H4R3. Total assay volume was 15 μL. Reaction was continued for 120 min at room temperature. Then detection solution containing Streptavidin-Eu cryptate, anti-rabbit IgG-XL-665, Histone H4R3 Dimethyl Symmetric (H4R3me2s) Polyclonal Antibody, all prepared in HTRF detection buffer was added and further incubated for 30 min at room temperature. HTRF signal was recorded in PHERAStar microplate reader. Ratio of signal obtained at 665 nm and 620 nm was used to compute the percent inhibition of compound as follows % Inhibition=100−((Test Ratio−Negative control Ratio)/(Positive control Ratio−Negative control Ratio)*100) where Positive control=PRMT5+SAM+H4R3 Negative control=PRMT5+H4R3 Biochemical Assay Protocol 2
# as §1, with “2.5” for “15-25”, “4 h” for “120 min”, “control=PRMT5+H4R3” for “control=PRMT5+H4R3 Biochemical Assay Protocol 2”
# [1] = activity range, lower bound in pM, upper bound in nM
IC50 (PANC-1 cells; [1]) [pM],IC50 (PRMT5:MEP50) [nM],IC50 (PANC-1 cells; activity range 20 nM to 100 nM) [pM],Structure (SMILES)
300 to 20000,–,–,"Cc1ncnc2c1ccn2[C@@H]1C=C(C(C)Cc2cc(F)c3cc(Cl)c(N)nc3c2)[C@@H](O)[C@H]1O (single isomer, unassigned) [Compound-35a]"
300 to 20000,0.3 to 0.95,–,"Nc1nc2cc(OCC3=C[C@@H](n4ccc5c(N)ncnc54)[C@H](O)[C@@H]3O)cc(F)c2cc1Cl [Compound-18, (1S,2R,5R)-3-(((2-amino-3-chloro-5-fluoroquinolin-7-yl)oxy)methyl)-5-(4-amino-7H-pyrrolo[2,3-d]pyrimidin-7-yl)cyclopent-3-ene-1,2-diol]"
300 to 20000,0.3 to 0.95,–,"Nc1nc2cc(CC[C@@]34C[C@@H]3[C@@H](n3ccc5c(N)ncnc53)[C@H](O)[C@@H]4O)ccc2cc1Br [Compound-73, (1R,2R,3S,4R,5S)-1-(2-(2-Amino-3-bromoquinolin-7-yl)ethyl)-4-(4-amino-7H-pyrrolo [2,3-d]pyrimidin-7-yl)bicyclo[3.1.0]hexane-2,3-diol]"
–,–,20000 to 100000,"CC(Cc1ccc2cc(Br)c(N)nc2c1)[C@@]12C[C@@H]1[C@@H](n1ccc3c(N)ncnc31)[C@H](O)[C@@H]2O (stereo partly drawn) [76b, (1S,2R,3S,4R,5S)-1-((S)-1-(2-Amino-3-bromoquinolin-7-yl)propan-2-yl)-4-(4-amino-7H-pyrrolo[2,3-d]pyrimidin-7-yl)bicyclo[3.1.0]hexane-2,3-diol]"
300 to 20000,–,–,"Nc1ncc2ccn([C@@H]3C=C(CCc4ccc5cc(Cl)c(N)nc5c4)[C@@H](O)[C@H]3O)c2n1 [Compound-30, (1S,2R,5R)-3-(2-(2-amino-3-chloroquinolin-7-yl)ethyl)-5-(2-amino-7H-pyrrolo[2,3-d]pyrimidin-7-yl)cyclopent-3-ene-1,2-diol]"
–,0.3 to 0.95,–,"Cc1ncnc2c1ccn2[C@@H]1C=C(CCc2cc(F)c3cc(Br)c(N)nc3c2)[C@@H](O)[C@H]1O [Compound-44, (1S,2R,5R)-3-(2-(2-Amino-3-bromo-5-fluoroquinolin-7-yl)ethyl)-5-(4-methyl-7H-pyrrolo[2,3-d]pyrimidin-7-yl)cyclopent-3-ene-1,2-diol]"
300 to 20000,0.3 to 0.95,–,"C[C@@]1(O)C(CCc2cc(F)c3cc(Cl)c(N)nc3c2)=C[C@@H](n2ccc3c(N)ncnc32)[C@@H]1O [Compound-37, (1S,2R,5R)-3-(2-(2-amino-3-chloro-5-fluoroquinolin-7-yl)ethyl)-5-(4-amino-7H-pyrrolo[2,3-d]pyrimidin-7-yl)-2-methylcyclopent-3-ene-1,2-diol]"
300 to 20000,0.3 to 0.95,–,"Nc1nc2cc(CCC3=C[C@@H](n4ccc5c(N)ncnc54)[C@H](O)[C@@H]3O)ccc2cc1Br [Compound-1, (1S,2R,5R)-3-(2-(2-Amino-3-bromoquinolin-7-yl)ethyl)-5-(4-amino-7H pyrrolo[2,3-d]pyrimidin-7-yl)cyclopent-3-ene-1,2-diol]"
300 to 20000,0.3 to 0.95,–,"CC(Cc1ccc2cc(Cl)c(N)nc2c1)C1=C[C@@H](n2ccc3c(N)ncnc32)[C@H](O)[C@@H]1O (single isomer, unassigned) [Compound-34b]"
–,0.3 to 0.95,–,"Nc1nc2cc(CCC3=C[C@@H](n4ccc5c(N)ncnc54)[C@H](O)[C@@H]3O)ccc2cc1F [Compound-23, (1S,2R,5R)-3-(2-(2-Amino-3-fluoroquinolin-7-yl)ethyl)-5-(4-amino-7H-pyrrolo[2,3-d]pyrimidin-7-yl)cyclopent-3-ene-1,2-diol]"
300 to 20000,0.3 to 0.95,–,"Cc1ncnc2c1ccn2[C@@H]1C=C(CCc2ccc3cc(Cl)c(N)nc3c2)[C@@H](O)[C@H]1O [Compound-21, (1S,2R,5R)-3-(2-(2-amino-3-chloroquinolin-7-yl)ethyl)-5-(4-methyl-7H-pyrrolo[2,3-d]pyrimidin-7-yl)cyclopent-3-ene-1,2-diol]"
–,–,20000 to 100000,"Nc1nc2cc(CCC3=C[C@@H](n4ccc5c(N)ncnc54)[C@H](O)[C@@H]3O)cc(Cl)c2cc1Cl [Compound-29, (1S,2R,5R)-3-(2-(2-amino-3,5-dichloroquinolin-7-yl)ethyl)-5-(4-amino-7H-pyrrolo[2,3-d]pyrimidin-7-yl)cyclopent-3-ene-1,2-diol]"
300 to 20000,0.3 to 0.95,–,"Nc1nc2cc(CCC3=C[C@@H](n4ccc5c(N)ncnc54)[C@H](O)[C@@H]3O)cc(F)c2cc1Br [Compound-43, (1S,2R,5R)-3-(2-(2-Amino-3-bromo-5-fluoroquinolin-7-yl)ethyl)-5-(4-amino-7H-pyrrolo[2,3-d]pyrimidin-7-yl)cyclopent-3-ene-1,2-diol]"
300 to 20000,–,–,"CC[C@@]1(O)C(CCc2cc(F)c3cc(Cl)c(N)nc3c2)=C[C@@H](n2ccc3c(N)ncnc32)[C@@H]1O [Compound-40, (1S,2R,5R)-3-(2-(2-amino-3-chloro-5-fluoroquinolin-7-yl)ethyl)-5-(4-amino-7H-pyrrolo[2,3-d]pyrimidin-7-yl)-2-ethylcyclopent-3-ene-1,2-diol]"
300 to 20000,–,–,"CCc1ncnc2c1ccn2[C@@H]1C=C(CCc2cc(F)c3cc(Cl)c(N)nc3c2)[C@@H](O)[C@H]1O [Compound-41, (1S,2R,5R)-3-(2-(2-amino-3-chloro-5-fluoroquinolin-7-yl)ethyl)-5-(4-ethyl-7H-pyrrolo[2,3-d]pyrimidin-7-yl)cyclopent-3-ene-1,2-diol]"
–,0.3 to 0.95,–,"Nc1nc2cc(CCC3=C[C@@H](n4ccc5cnccc54)[C@H](O)[C@@H]3O)cc(F)c2cc1Cl [Compound-15, (1S,2R,5R)-3-(2-(2-Amino-3-chloro-5-fluoroquinolin-7-yl)ethyl)-5-(1H-pyrrolo[3,2-c]pyridin-1-yl)cyclopent-3-ene-1,2-diol]"
300 to 20000,–,–,"Cc1cc2ccc(CC[C@@]34C[C@@H]3[C@@H](n3ccc5c(N)ncnc53)[C@H](O)[C@@H]4O)cc2nc1N [Compound-54, (1R,2R,3S,4R,5S)-1-(2-(2-Amino-3-methylquinolin-7-yl)ethyl)-4-(4-amino-7H-pyrrolo[2,3-d]pyrimidin-7-yl) bicyclo[3.1.0]hexane-2,3-diol]"
300 to 20000,0.3 to 0.95,–,"CC(Cc1cc(F)c2cc(Cl)c(N)nc2c1)C1=C[C@@H](n2ccc3c(N)ncnc32)[C@H](O)[C@]1(C)O (stereo partly drawn) [Compound-38, (1S,2R,5R)-3-(1-(2-amino-3-chloro-5-fluoroquinolin-7-yl)propan-2-yl)-5-(4-amino-7H-pyrrolo[2,3-d]pyrimidin-7-yl)-2-methylcyclopent-3-ene-1,2-diol]"
300 to 20000,–,–,"Nc1ccc2cc(F)c(CCC3=C[C@@H](n4ccc5c(N)ncnc54)[C@H](O)[C@@H]3O)cc2n1 [Compound-46, (1S,2R,5R)-3-(2-(2-Amino-6-fluoroquinolin-7-yl)ethyl)-5-(4-amino-7H-pyrrolo[2,3-d]pyrimidin-7-yl)cyclopent-3-ene-1,2-diol]"
–,0.3 to 0.95,–,"Cc1ncnc2c1ccn2[C@@H]1C=C(C(C)Cc2cc(F)c3cc(Cl)c(N)nc3c2)[C@@](C)(O)[C@H]1O (single isomer, unassigned) [Compound-36a]"
–,0.3 to 0.95,–,"CC(Cc1cc(F)c2cc(Br)c(N)nc2c1)C1=C[C@@H](n2ccc3c(N)ncnc32)[C@H](O)[C@@H]1O (single isomer, unassigned) [Compound-45a]"
